Source: ChEMBL document CHEMBL5236624, “Synthesis, Characterization, and Application of Muscarinergic M3 Receptor Ligands Linked to Fluorescent Dyes” (J Med Chem, 2022)

Columns and labels:
[1] = molecular target: T1, Muscarinic acetylcholine receptor M2 (Homo sapiens, UniProt P08172); test: Displacement of [3H]N-methylscopolamine from human muscarinic M2 receptor expressed in human HEK293T cell membranes by radioligand competition binding based analysis; design: species or system Cell membrane
T1 sequence (P08172 whole entry): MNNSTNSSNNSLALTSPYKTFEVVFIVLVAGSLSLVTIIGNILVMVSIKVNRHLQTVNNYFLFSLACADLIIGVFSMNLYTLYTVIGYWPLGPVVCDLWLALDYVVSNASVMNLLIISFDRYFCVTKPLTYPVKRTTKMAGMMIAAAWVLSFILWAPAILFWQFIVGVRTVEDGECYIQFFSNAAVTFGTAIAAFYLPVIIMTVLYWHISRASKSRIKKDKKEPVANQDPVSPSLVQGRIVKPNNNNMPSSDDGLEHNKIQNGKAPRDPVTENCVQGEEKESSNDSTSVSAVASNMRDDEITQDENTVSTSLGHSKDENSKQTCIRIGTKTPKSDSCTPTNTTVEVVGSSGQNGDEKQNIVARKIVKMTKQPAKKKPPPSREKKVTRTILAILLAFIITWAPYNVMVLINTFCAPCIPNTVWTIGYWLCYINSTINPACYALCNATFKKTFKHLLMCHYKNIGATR

[2] = molecular target: Muscarinic acetylcholine receptor M3 (Homo sapiens, UniProt P20309); test: Displacement of [3H]N-methylscopolamine from human muscarinic M3 receptor expressed in human HEK293T cell membranes by radioligand competition binding based analysis; design: species or system Cell membrane
Sequence of Muscarinic acetylcholine receptor M3 (P20309 whole entry): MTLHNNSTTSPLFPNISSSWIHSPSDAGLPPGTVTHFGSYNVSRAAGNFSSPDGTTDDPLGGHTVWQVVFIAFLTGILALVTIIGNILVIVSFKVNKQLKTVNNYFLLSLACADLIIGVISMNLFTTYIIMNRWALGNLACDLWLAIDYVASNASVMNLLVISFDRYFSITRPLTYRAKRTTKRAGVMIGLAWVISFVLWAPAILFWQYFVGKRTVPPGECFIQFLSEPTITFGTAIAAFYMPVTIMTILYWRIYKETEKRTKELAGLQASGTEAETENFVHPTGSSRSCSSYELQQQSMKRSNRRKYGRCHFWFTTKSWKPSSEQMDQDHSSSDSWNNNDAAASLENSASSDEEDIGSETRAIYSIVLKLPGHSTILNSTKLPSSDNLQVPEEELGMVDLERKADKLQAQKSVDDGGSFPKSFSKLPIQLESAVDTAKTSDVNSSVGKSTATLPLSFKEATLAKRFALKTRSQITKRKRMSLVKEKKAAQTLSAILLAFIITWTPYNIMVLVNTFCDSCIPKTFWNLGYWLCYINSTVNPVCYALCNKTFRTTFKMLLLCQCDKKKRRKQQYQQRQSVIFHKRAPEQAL

[3] = molecular target: T2, Muscarinic acetylcholine receptor M1 (Homo sapiens, UniProt P11229); test: Displacement of [3H]N-methylscopolamine from human muscarinic M1 receptor expressed in human HEK293T cell membranes by radioligand competition binding based analysis; design: species or system Cell membrane
T2 sequence (P11229 whole entry): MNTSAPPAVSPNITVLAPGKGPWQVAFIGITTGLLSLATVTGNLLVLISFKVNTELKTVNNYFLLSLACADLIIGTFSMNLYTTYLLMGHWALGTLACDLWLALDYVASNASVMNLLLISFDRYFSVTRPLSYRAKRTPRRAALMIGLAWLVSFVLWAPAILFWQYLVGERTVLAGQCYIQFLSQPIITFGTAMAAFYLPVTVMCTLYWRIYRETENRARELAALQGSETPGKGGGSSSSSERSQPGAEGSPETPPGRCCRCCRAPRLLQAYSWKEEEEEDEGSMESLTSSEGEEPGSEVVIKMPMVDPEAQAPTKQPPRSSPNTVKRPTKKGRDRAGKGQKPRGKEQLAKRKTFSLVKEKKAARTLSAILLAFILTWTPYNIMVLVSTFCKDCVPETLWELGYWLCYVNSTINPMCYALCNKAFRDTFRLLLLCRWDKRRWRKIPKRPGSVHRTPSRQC

[4] = molecular target: T3, Muscarinic acetylcholine receptor M5 (Homo sapiens, UniProt P08912); test: Displacement of [3H]N-methylscopolamine from human muscarinic M5 receptor expressed in human HEK293T cell membranes by radioligand competition binding based analysis; design: species or system Cell membrane
T3 sequence (P08912 whole entry): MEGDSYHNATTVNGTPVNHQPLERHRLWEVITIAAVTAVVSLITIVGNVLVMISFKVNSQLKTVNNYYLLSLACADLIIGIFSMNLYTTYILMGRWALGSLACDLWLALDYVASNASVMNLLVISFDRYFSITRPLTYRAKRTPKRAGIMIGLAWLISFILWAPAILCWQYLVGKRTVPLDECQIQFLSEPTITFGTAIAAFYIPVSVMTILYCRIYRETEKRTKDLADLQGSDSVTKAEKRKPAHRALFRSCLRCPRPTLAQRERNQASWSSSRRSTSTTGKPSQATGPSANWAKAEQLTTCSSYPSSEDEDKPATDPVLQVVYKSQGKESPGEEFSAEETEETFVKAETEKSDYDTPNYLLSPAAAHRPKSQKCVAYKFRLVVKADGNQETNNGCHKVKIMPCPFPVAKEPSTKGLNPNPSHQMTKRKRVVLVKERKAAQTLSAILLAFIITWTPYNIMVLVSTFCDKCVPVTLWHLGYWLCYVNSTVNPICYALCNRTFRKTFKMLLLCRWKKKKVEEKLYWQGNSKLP

[5] = molecular target: T4, Muscarinic acetylcholine receptor M4 (Homo sapiens, UniProt P08173); test: Displacement of [3H]N-methylscopolamine from human muscarinic M4 receptor expressed in human HEK293T cell membranes by radioligand competition binding based analysis; design: species or system Cell membrane
T4 sequence (P08173 whole entry): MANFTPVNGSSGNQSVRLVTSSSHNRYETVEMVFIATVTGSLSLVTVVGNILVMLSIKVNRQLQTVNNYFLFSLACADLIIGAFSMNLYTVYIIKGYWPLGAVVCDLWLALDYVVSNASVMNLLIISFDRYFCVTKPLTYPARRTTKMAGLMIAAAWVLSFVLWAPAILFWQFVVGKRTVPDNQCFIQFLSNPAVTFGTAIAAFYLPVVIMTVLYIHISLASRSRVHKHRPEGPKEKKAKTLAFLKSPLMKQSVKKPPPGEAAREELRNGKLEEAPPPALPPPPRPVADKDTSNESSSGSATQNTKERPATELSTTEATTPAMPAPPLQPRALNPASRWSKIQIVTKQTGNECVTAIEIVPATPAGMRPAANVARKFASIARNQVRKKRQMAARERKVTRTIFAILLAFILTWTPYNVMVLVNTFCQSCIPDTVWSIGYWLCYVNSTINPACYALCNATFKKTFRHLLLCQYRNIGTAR

Homo sapiens [6] = organism: Homo sapiens; test: Selectivity ratio, Ki for displacement of [3H]N-methylscopolamine from human muscarinic M4 receptor expressed in human HEK293T cell membranes to Ki for displacement of [3H]N-methylscopolamine from human muscarinic M3 receptor expressed in human HEK293T cell membranes
Homo sapiens [7] = organism: Homo sapiens; test: Selectivity ratio, Ki for displacement of [3H]N-methylscopolamine from human muscarinic M5 receptor expressed in human HEK293T cell membranes to Ki for displacement of [3H]N-methylscopolamine from human muscarinic M3 receptor expressed in human HEK293T cell membranes

Compound: C#CCCCCCCN1CCC(COC(=O)Nc2ccc(F)cc2-c2ccc(F)c(Cl)c2)CC1
- Ki [1]: 9.3 nM
- Ki [2]: 0.32 nM
- Ki [3]: 0.64 nM

Compound: O=C(Nc1ccc(F)cc1-c1ccc(F)c(Cl)c1)OC1CCNCC1
- Ki [1]: 92 nM
- Ki [2]: 4.3 nM
- Ki [3]: 2.8 nM

Compound: CN1/C(=C/C=C/C=C/C2=[N+](CCCCCC(=O)NCCCCCCCCN3CCC(COC(=O)Nc4ccc(F)cc4-c4ccc(F)c(Cl)c4)CC3)c3ccccc3C2(C)C)C(C)(C)c2ccccc21
- Ki [1]: 1.1 nM
- Ki [4]: 2.6 nM
- Ki [5]: 0.56 nM
- Ki [2]: 3.2 nM
- Ki [3]: 1.8 nM
- Selectivity ratio (Homo sapiens [6]): 0.18
- Selectivity ratio (Homo sapiens [7]): 0.81

Compound: NCCCCCCN1CCC(COC(=O)Nc2ccc(F)cc2-c2ccc(F)c(Cl)c2)CC1
- Ki [1]: 1.4 nM
- Ki [2]: 0.081 nM
- Ki [3]: 0.43 nM

Compound: C#CCCCCCN1CCC(COC(=O)Nc2ccc(F)cc2-c2ccc(F)c(Cl)c2)CC1
- Ki [1]: 13 nM
- Ki [2]: 0.77 nM
- Ki [3]: 1.3 nM

Compound: CN1/C(=C/C=C/C=C/C2=[N+](CCCCCC(=O)NCCCNCCCCCCN3CCC(COC(=O)Nc4ccc(F)cc4-c4ccc(F)c(Cl)c4)CC3)c3ccccc3C2(C)C)C(C)(C)c2ccccc21
- Ki [1]: 9.9 nM
- Ki [4]: 18 nM
- Ki [5]: 1.7 nM
- Ki [2]: 7.7 nM
- Ki [3]: 1.9 nM
- Selectivity ratio (Homo sapiens [6]): 0.22
- Selectivity ratio (Homo sapiens [7]): 2.3

Compound: CN(C)c1ccc2c(-c3ccc(-c4cn(CCCCCn5cc(CCCCCCN6CCC(OC(=O)Nc7ccc(F)cc7-c7ccc(F)c(Cl)c7)CC6)nn5)nn4)cc3C(=O)[O-])c3ccc(=[N+](C)C)cc-3oc2c1
- Ki [1]: 9.8 nM
- Ki [4]: 11 nM
- Ki [5]: 3.8 nM
- Ki [2]: 12 nM
- Ki [3]: 2 nM
- Selectivity ratio (Homo sapiens [6]): 0.32
- Selectivity ratio (Homo sapiens [7]): 0.92

Compound: CN(C)c1ccc2c(-c3ccc(-c4cn(CCCCCn5cc(CCCCCN6CCC(COC(=O)Nc7ccc(F)cc7-c7ccc(F)c(Cl)c7)CC6)nn5)nn4)cc3C(=O)[O-])c3ccc(=[N+](C)C)cc-3oc2c1
- Ki [1]: 26 nM
- Ki [4]: 12 nM
- Ki [5]: 2.6 nM
- Ki [2]: 3.1 nM
- Ki [3]: 3.8 nM
- Selectivity ratio (Homo sapiens [6]): 0.84
- Selectivity ratio (Homo sapiens [7]): 3.9

Compound: NCCCCCCN1CCC(OC(=O)Nc2ccc(F)cc2-c2ccc(F)c(Cl)c2)CC1
- Ki [1]: 28 nM
- Ki [2]: 2.6 nM
- Ki [3]: 1.9 nM

Compound: CN1/C(=C/C=C/C=C/C2=[N+](CCCCCC(=O)NCCCCCCN3CCC(COC(=O)Nc4ccc(F)cc4-c4ccc(F)c(Cl)c4)CC3)c3ccccc3C2(C)C)C(C)(C)c2ccccc21
- Ki [1]: 6.7 nM
- Ki [4]: 6.9 nM
- Ki [5]: 0.9 nM
- Ki [2]: 6.3 nM
- Ki [3]: 2.3 nM
- Selectivity ratio (Homo sapiens [6]): 0.14
- Selectivity ratio (Homo sapiens [7]): 1.1

Compound: NCCCCCCCCN1CCC(COC(=O)Nc2ccc(F)cc2-c2ccc(F)c(Cl)c2)CC1
- Ki [1]: 0.92 nM
- Ki [2]: 0.15 nM
- Ki [3]: 0.35 nM

Compound: CN(C)c1ccc2c(-c3ccc(-c4cn(CCCCCn5cc(CCCCCN6CCC(OC(=O)Nc7ccc(F)cc7-c7ccc(F)c(Cl)c7)CC6)nn5)nn4)cc3C(=O)[O-])c3ccc(=[N+](C)C)cc-3oc2c1
- Ki [1]: 26 nM
- Ki [4]: 9.7 nM
- Ki [5]: 3.3 nM
- Ki [2]: 6.8 nM
- Ki [3]: 4.1 nM
- Selectivity ratio (Homo sapiens [6]): 0.49
- Selectivity ratio (Homo sapiens [7]): 1.4

Compound: C#CCCCCCCN1CCC(OC(=O)Nc2ccc(F)cc2-c2ccc(F)c(Cl)c2)CC1
- Ki [1]: 7.9 nM
- Ki [2]: 1 nM
- Ki [3]: 0.63 nM

Compound: CN1/C(=C/C=C/C=C/C2=[N+](CCCCCC(=O)NCCCCCCCCN3CCC(OC(=O)Nc4ccc(F)cc4-c4ccc(F)c(Cl)c4)CC3)c3ccccc3C2(C)C)C(C)(C)c2ccccc21
- Ki [1]: 0.62 nM
- Ki [5]: 0.86 nM
- Ki [3]: 1 nM
- Selectivity ratio (Homo sapiens [6]): 1.4

Compound: NCCCCCCCCN1CCC(OC(=O)Nc2ccc(F)cc2-c2ccc(F)c(Cl)c2)CC1
- Ki [1]: 1.7 nM
- Ki [2]: 0.28 nM
- Ki [3]: 0.34 nM

Compound: C#CCCCCCN1CCC(OC(=O)Nc2ccc(F)cc2-c2ccc(F)c(Cl)c2)CC1
- Ki [1]: 23 nM
- Ki [2]: 1.8 nM
- Ki [3]: 2 nM
